Test results: ChEMBL document CHEMBL1909046, “DrugMatrix in vitro pharmacology data”

Molecular target: Adenosine receptor A2a (Homo sapiens, UniProt P29274)
Experiment: DRUGMATRIX: Adenosine A2A radioligand binding (ligand: […])
Type: cell membranes, HEK293, Membrane
Conditions: hek293; Not Active = under 50% inhibition at 10 µM

Adenosine receptor A2a, sequence (P29274 whole entry): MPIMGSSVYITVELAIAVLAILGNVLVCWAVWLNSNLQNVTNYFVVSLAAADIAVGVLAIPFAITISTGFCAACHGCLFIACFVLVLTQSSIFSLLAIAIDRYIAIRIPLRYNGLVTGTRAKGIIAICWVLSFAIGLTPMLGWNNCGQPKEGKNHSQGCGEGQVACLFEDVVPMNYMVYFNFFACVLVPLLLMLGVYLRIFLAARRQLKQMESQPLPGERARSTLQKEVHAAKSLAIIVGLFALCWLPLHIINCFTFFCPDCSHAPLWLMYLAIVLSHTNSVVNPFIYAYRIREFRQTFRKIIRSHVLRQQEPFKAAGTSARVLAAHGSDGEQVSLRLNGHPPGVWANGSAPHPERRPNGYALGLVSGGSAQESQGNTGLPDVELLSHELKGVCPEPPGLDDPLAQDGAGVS

Compound	IC50
C=C1/C(=C\C=C2/CCC[C@]3(C)[C@@H]([C@H](C)CCCC(C)C)CC[C@@H]23)C[C@@H](O)C[C@@H]1O [ALFACALCIDOL]	Not Active
CCCCCC[C@H]1C(=O)O[C@H](C)[C@H](NC(=O)c2cccc(NC=O)c2O)C(=O)O[C@@H](C)[C@@H]1OC(=O)CC(C)C [ANTIMYCIN A]	Not Active
C[C@@H]1CC[C@H]2[C@@H](C)C(=O)O[C@@H]3O[C@@]4(C)CC[C@@H]1[C@]32OO4 [ARTEMISININ]	Not Active
Cc1cnc(C(=O)NCCc2ccc(S(=O)(=O)NC(=O)NC3CCCCC3)cc2)cn1 [GLIPIZIDE]	Not Active
N=C(N)N/N=C/c1c(Cl)cccc1Cl [GUANABENZ]	Not Active
CC[C@H](C)C(=O)O[C@H]1C[C@@H](C)C=C2C=C[C@H](C)[C@H](CC[C@@H]3C[C@@H](O)CC(=O)O3)[C@H]21 [LOVASTATIN]	Not Active
CC[C@H](C)C(=O)O[C@H]1C[C@H](O)C=C2C=C[C@H](C)[C@H](CC[C@@H](O)C[C@@H](O)CC(=O)O)[C@H]21 [PRAVASTATIN]	Not Active

Molecular target: T1, Alpha-1A adrenergic receptor (Rattus norvegicus, UniProt P43140)
T1 sequence (P43140 whole entry): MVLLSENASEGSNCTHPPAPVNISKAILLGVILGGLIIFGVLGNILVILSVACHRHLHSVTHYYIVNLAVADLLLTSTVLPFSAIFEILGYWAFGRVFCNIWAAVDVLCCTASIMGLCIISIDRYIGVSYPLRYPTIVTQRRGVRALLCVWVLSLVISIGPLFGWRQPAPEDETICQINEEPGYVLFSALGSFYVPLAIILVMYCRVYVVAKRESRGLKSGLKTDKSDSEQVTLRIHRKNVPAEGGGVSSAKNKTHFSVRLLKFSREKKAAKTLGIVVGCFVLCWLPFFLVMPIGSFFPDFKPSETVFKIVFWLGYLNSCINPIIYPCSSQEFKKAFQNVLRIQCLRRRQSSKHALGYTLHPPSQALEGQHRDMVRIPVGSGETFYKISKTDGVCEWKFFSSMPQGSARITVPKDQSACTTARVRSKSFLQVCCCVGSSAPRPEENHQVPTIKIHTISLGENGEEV
Experiment: DRUGMATRIX: Alpha-1A adrenergic receptor radioligand binding (ligand: prazosin)
Type: cell membranes, Wistar, Submaxillary gland, Membrane
Conditions: Not Active = under 50% inhibition at 10 µM

Compound	IC50
C=C1/C(=C\C=C2/CCC[C@]3(C)[C@@H]([C@H](C)CCCC(C)C)CC[C@@H]23)C[C@@H](O)C[C@@H]1O [ALFACALCIDOL]	Not Active
CCCCCC[C@H]1C(=O)O[C@H](C)[C@H](NC(=O)c2cccc(NC=O)c2O)C(=O)O[C@@H](C)[C@@H]1OC(=O)CC(C)C [ANTIMYCIN A]	Not Active
C[C@@H]1CC[C@H]2[C@@H](C)C(=O)O[C@@H]3O[C@@]4(C)CC[C@@H]1[C@]32OO4 [ARTEMISININ]	Not Active
Cc1cnc(C(=O)NCCc2ccc(S(=O)(=O)NC(=O)NC3CCCCC3)cc2)cn1 [GLIPIZIDE]	Not Active
CC[C@H](C)C(=O)O[C@H]1C[C@@H](C)C=C2C=C[C@H](C)[C@H](CC[C@@H]3C[C@@H](O)CC(=O)O3)[C@H]21 [LOVASTATIN]	Not Active
CC[C@H](C)C(=O)O[C@H]1C[C@H](O)C=C2C=C[C@H](C)[C@H](CC[C@@H](O)C[C@@H](O)CC(=O)O)[C@H]21 [PRAVASTATIN]	Not Active

System: not listed separately
Experiment: DRUGMATRIX: Calcium Channel Type L, Benzothiazepine radioligand binding (ligand: [3H] Diltiazem)
Type: cell membranes, Rattus norvegicus, Wistar, Brain, Membrane
Conditions: Not Active = under 50% inhibition at 10 µM

Compound	IC50	Ki
C=C1/C(=C\C=C2/CCC[C@]3(C)[C@@H]([C@H](C)CCCC(C)C)CC[C@@H]23)C[C@@H](O)C[C@@H]1O [ALFACALCIDOL]	Not Active	Not Active
CCCCCC[C@H]1C(=O)O[C@H](C)[C@H](NC(=O)c2cccc(NC=O)c2O)C(=O)O[C@@H](C)[C@@H]1OC(=O)CC(C)C [ANTIMYCIN A]	Not Active	Not Active
C[C@@H]1CC[C@H]2[C@@H](C)C(=O)O[C@@H]3O[C@@]4(C)CC[C@@H]1[C@]32OO4 [ARTEMISININ]	Not Active	Not Active
Cc1cnc(C(=O)NCCc2ccc(S(=O)(=O)NC(=O)NC3CCCCC3)cc2)cn1 [GLIPIZIDE]	Not Active	Not Active
N=C(N)N/N=C/c1c(Cl)cccc1Cl [GUANABENZ]	Not Active	Not Active
CC[C@H](C)C(=O)O[C@H]1C[C@@H](C)C=C2C=C[C@H](C)[C@H](CC[C@@H]3C[C@@H](O)CC(=O)O3)[C@H]21 [LOVASTATIN]	Not Active	Not Active
CC[C@H](C)C(=O)O[C@H]1C[C@H](O)C=C2C=C[C@H](C)[C@H](CC[C@@H](O)C[C@@H](O)CC(=O)O)[C@H]21 [PRAVASTATIN]	Not Active	Not Active

System: not listed separately
Experiment: DRUGMATRIX: Atrial Natriuretic Factor (ANF) radioligand binding (ligand: [125I] ANF (rat))
Type: cell membranes, Cavia porcellus, Dunkin-Hartley, Adrenal gland, Membrane
Conditions: Not Active = under 50% inhibition at 10 µM

Compound	IC50	Ki
C=C1/C(=C\C=C2/CCC[C@]3(C)[C@@H]([C@H](C)CCCC(C)C)CC[C@@H]23)C[C@@H](O)C[C@@H]1O [ALFACALCIDOL]	Not Active	Not Active
CCCCCC[C@H]1C(=O)O[C@H](C)[C@H](NC(=O)c2cccc(NC=O)c2O)C(=O)O[C@@H](C)[C@@H]1OC(=O)CC(C)C [ANTIMYCIN A]	Not Active	Not Active
C[C@@H]1CC[C@H]2[C@@H](C)C(=O)O[C@@H]3O[C@@]4(C)CC[C@@H]1[C@]32OO4 [ARTEMISININ]	Not Active	Not Active
Cc1cnc(C(=O)NCCc2ccc(S(=O)(=O)NC(=O)NC3CCCCC3)cc2)cn1 [GLIPIZIDE]	Not Active	Not Active
N=C(N)N/N=C/c1c(Cl)cccc1Cl [GUANABENZ]	Not Active	Not Active
CC[C@H](C)C(=O)O[C@H]1C[C@@H](C)C=C2C=C[C@H](C)[C@H](CC[C@@H]3C[C@@H](O)CC(=O)O3)[C@H]21 [LOVASTATIN]	Not Active	Not Active
CC[C@H](C)C(=O)O[C@H]1C[C@H](O)C=C2C=C[C@H](C)[C@H](CC[C@@H](O)C[C@@H](O)CC(=O)O)[C@H]21 [PRAVASTATIN]	Not Active	Not Active

Molecular target: T2, Interstitial collagenase (Homo sapiens, UniProt P03956);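 note: MMP-1 enzyme inhibition assay using a peptide substrate; in other assays of this panel Not Active means under 50% inhibition at 10 µM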
T2 sequence (P03956 whole entry): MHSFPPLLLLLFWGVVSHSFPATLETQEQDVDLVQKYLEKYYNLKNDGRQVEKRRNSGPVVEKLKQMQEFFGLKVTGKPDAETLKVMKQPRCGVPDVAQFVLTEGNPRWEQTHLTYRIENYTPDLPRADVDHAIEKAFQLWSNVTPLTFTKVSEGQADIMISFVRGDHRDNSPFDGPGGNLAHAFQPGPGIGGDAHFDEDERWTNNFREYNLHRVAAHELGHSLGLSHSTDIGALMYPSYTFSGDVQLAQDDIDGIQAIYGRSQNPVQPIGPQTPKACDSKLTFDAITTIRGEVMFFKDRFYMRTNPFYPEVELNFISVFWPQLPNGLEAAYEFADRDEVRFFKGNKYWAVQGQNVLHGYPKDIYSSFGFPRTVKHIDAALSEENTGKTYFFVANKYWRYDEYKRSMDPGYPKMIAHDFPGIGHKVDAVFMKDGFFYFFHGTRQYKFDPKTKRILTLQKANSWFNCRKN
Type: tissue-based, Rheumatoid synovial fibroblasts
Conditions: not given

Compound	IC50
C=C1/C(=C\C=C2/CCC[C@]3(C)[C@@H]([C@H](C)CCCC(C)C)CC[C@@H]23)C[C@@H](O)C[C@@H]1O [ALFACALCIDOL]	Not Active
CCCCCC[C@H]1C(=O)O[C@H](C)[C@H](NC(=O)c2cccc(NC=O)c2O)C(=O)O[C@@H](C)[C@@H]1OC(=O)CC(C)C [ANTIMYCIN A]	Not Active
C[C@@H]1CC[C@H]2[C@@H](C)C(=O)O[C@@H]3O[C@@]4(C)CC[C@@H]1[C@]32OO4 [ARTEMISININ]	Not Active
Cc1cnc(C(=O)NCCc2ccc(S(=O)(=O)NC(=O)NC3CCCCC3)cc2)cn1 [GLIPIZIDE]	Not Active
N=C(N)N/N=C/c1c(Cl)cccc1Cl [GUANABENZ]	Not Active
CC[C@H](C)C(=O)O[C@H]1C[C@@H](C)C=C2C=C[C@H](C)[C@H](CC[C@@H]3C[C@@H](O)CC(=O)O3)[C@H]21 [LOVASTATIN]	Not Active
CC[C@H](C)C(=O)O[C@H]1C[C@H](O)C=C2C=C[C@H](C)[C@H](CC[C@@H](O)C[C@@H](O)CC(=O)O)[C@H]21 [PRAVASTATIN]	Not Active

Molecular target: T3, 3-hydroxy-3-methylglutaryl-coenzyme A reductase (Homo sapiens, UniProt P04035);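 note: enzyme inhibition assay of HMG-CoA reductase using radiolabeled [14C]HMG-CoA as substrate; in other assays of this panel Not Active means under 50% inhibition at 10 µM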
T3 sequence (P04035 whole entry): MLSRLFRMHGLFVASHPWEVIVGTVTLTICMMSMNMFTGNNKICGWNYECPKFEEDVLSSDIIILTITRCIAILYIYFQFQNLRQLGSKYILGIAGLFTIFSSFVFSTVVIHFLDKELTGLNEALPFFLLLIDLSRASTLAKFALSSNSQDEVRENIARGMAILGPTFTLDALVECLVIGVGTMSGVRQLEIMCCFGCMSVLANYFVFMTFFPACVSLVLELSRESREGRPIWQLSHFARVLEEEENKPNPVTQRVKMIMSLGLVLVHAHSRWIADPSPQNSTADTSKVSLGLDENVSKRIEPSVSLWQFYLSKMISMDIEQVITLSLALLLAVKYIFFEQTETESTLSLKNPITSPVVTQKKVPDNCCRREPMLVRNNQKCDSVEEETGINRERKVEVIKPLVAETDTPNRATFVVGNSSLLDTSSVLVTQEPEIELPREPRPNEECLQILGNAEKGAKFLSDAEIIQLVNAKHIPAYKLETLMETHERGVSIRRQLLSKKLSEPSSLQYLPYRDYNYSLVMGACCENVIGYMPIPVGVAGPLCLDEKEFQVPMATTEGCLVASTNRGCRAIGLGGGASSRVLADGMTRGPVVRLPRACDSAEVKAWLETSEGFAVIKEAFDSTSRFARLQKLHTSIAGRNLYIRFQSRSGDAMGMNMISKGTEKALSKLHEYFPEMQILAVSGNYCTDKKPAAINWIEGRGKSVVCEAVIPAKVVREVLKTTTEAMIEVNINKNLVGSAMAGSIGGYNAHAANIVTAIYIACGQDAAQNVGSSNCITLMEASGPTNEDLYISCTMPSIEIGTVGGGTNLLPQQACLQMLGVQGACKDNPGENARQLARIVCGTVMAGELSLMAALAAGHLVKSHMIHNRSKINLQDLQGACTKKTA
Parameters: species or system Escherichia coli
Conditions: not given

Compound	IC50
C=C1/C(=C\C=C2/CCC[C@]3(C)[C@@H]([C@H](C)CCCC(C)C)CC[C@@H]23)C[C@@H](O)C[C@@H]1O [ALFACALCIDOL]	Not Active
CCCCCC[C@H]1C(=O)O[C@H](C)[C@H](NC(=O)c2cccc(NC=O)c2O)C(=O)O[C@@H](C)[C@@H]1OC(=O)CC(C)C [ANTIMYCIN A]	Not Active
C[C@@H]1CC[C@H]2[C@@H](C)C(=O)O[C@@H]3O[C@@]4(C)CC[C@@H]1[C@]32OO4 [ARTEMISININ]	Not Active
N=C(N)N/N=C/c1c(Cl)cccc1Cl [GUANABENZ]	Not Active

System: not listed separately
Experiment: DRUGMATRIX: Interleukin IL-1 radioligand binding (ligand: [125I] interleukin 1beta)
Type: cell membranes, Membrane
Conditions: nih3t3; Not Active = under 50% inhibition at 10 µM

Compound	IC50	Ki
C=C1/C(=C\C=C2/CCC[C@]3(C)[C@@H]([C@H](C)CCCC(C)C)CC[C@@H]23)C[C@@H](O)C[C@@H]1O [ALFACALCIDOL]	Not Active	Not Active
CCCCCC[C@H]1C(=O)O[C@H](C)[C@H](NC(=O)c2cccc(NC=O)c2O)C(=O)O[C@@H](C)[C@@H]1OC(=O)CC(C)C [ANTIMYCIN A]	Not Active	Not Active
C[C@@H]1CC[C@H]2[C@@H](C)C(=O)O[C@@H]3O[C@@]4(C)CC[C@@H]1[C@]32OO4 [ARTEMISININ]	Not Active	Not Active
Cc1cnc(C(=O)NCCc2ccc(S(=O)(=O)NC(=O)NC3CCCCC3)cc2)cn1 [GLIPIZIDE]	Not Active	Not Active
N=C(N)N/N=C/c1c(Cl)cccc1Cl [GUANABENZ]	Not Active	Not Active
CC[C@H](C)C(=O)O[C@H]1C[C@@H](C)C=C2C=C[C@H](C)[C@H](CC[C@@H]3C[C@@H](O)CC(=O)O3)[C@H]21 [LOVASTATIN]	Not Active	Not Active
CC[C@H](C)C(=O)O[C@H]1C[C@H](O)C=C2C=C[C@H](C)[C@H](CC[C@@H](O)C[C@@H](O)CC(=O)O)[C@H]21 [PRAVASTATIN]	Not Active	Not Active
